Here are results for six compounds from ChEMBL document CHEMBL5576092, “Iron(III) Binding Properties of PF1140, a Fungal N-Hydroxypyridone, and Activity against Mycoplasma genitalium” (J Nat Prod, 2024).

Converted amounts (≈) assume the structure as drawn. The source made the active and inactive calls. The calls are words filed in the database; no cut-off is given here.

Series [1] relates to Mycoplasma genitalium. Kind of series: Antibacterial activity against Mycoplasma genitalium G37 assessed as bacterial growth inhibition incubated for 7 days by microbroth dilution assay. In kind it is functional. The settings on record: Mycoplasmoides genitalium, G37, 168 h; time 7 day.
Series [2] has as its system Mycoplasma genitalium. The series is described as follows: Antibacterial activity against Mycoplasma genitalium G37 assessed as bacterial growth inhibition by qPCR analysis. In kind it is functional, organism-based. The conditions noted are these: Mycoplasmoides genitalium. In general terms: In qPCR the cycle at which signal appears reflects the starting amount.
Series [3] concerns Mycoplasma genitalium. Kind of series: Antibacterial activity against Mycoplasma genitalium assessed as bacterial growth inhibition in SP-4 broth medium supplemented with TPEN and zinc chloride at 0.64 uM measured after 2 hrs by absorbance based analysis. Format: functional, organism-based. The conditions noted are these: Mycoplasmoides genitalium.
Series [4] relates to Mycoplasma genitalium. The series is described as follows: Antibacterial activity against Mycoplasma genitalium Sea-1 assessed as bacterial growth inhibition incubated for 7 days by microbroth dilution assay. Format: functional. The conditions noted are these: Mycoplasmoides genitalium, Sea-1, 168 h; time 7 day. On the technique in general: Dilution methods test growth across graded concentrations, often in twofold steps.

The subject of series [5] is Mycoplasma genitalium. The series is described as follows: Antibacterial activity against Mycoplasma genitalium G37 assessed as bacterial growth inhibition at 0.29 to 0.58 uM incubated for 7 days by time-kill assay. Format: functional, organism-based. The settings on record: Mycoplasmoides genitalium, dose 0.29-0.58 µM, time 7.0 day.
Series [6] can be described thus: Metal chelating activity assessed as compound-zinc complex formation by UV-Vis spectrophotometric analysis.
Series [7] relates to Mycoplasma genitalium. The series is described as follows: Antibacterial activity against Mycoplasma genitalium Sea-1 assessed as bacterial growth inhibition by qPCR analysis. In kind it is functional, organism-based. The settings on record: Mycoplasmoides genitalium.
Series [8] can be described thus: Selectivity index, ratio of IC50 for human WIL-2N cells to IC50 for Mycoplasma genitalium G37. Format: toxicity. The conditions noted are these: read-out: Ratio IC50.
A short description of series [9]: Metal chelating activity assessed as compound-Nickel complex formation by UV-Vis spectrophotometric analysis.
For series [10], the system named is Mycoplasma genitalium. The series is described as follows: Antibacterial activity against Mycoplasma genitalium assessed as bacterial growth inhibition in SP-4 broth medium supplemented with TPEN at 0.64 uM measured after 2 hrs by absorbance based analysis. In kind it is functional, organism-based. The conditions noted are these: Mycoplasmoides genitalium.
For series [11], the system named is Mycoplasma genitalium. The series is described as follows: Antibacterial activity against Mycoplasma genitalium M2282 assessed as bacterial growth inhibition incubated for 7 days by microbroth dilution assay. Format: functional. The conditions noted are these: Mycoplasmoides genitalium, M2282, 168 h; time 7 day.
Series [12] can be described thus: Selectivity index, ratio of IC50 for human HeLa cells to IC50 for Mycoplasma genitalium G37. Format: toxicity. The conditions noted are these: read-out: Ratio IC50.
Series [13] can be described thus: Metal chelating activity assessed as compound-Cobalt complex formation by UV-Vis spectrophotometric analysis.
The nature of series [14]: Metal chelating activity assessed as compound-Fe3+ complex formation by UV-Vis spectrophotometric analysis.
Series [15] relates to Mycoplasma genitalium. The series is described as follows: Antibacterial activity against Mycoplasma genitalium G37 assessed as bacterial growth inhibition at 1.16 uM incubated for 7 days by time-kill assay relative to control. Format: functional, Mycoplasmoides genitalium. Details: scale not given: the % may be the effect or the level left. The settings on record: time 7 day.

Series [16] is described as follows: Metal chelating activity assessed as compound-calcium complex formation by UV-Vis spectrophotometric analysis.
The subject of series [17] is Mycoplasma genitalium. Kind of series: Bacteriostatic activity against Mycoplasma genitalium G37 assessed as bacterial growth inhibition at 4 times MIC measured after 7 days by time-kill assay relative to control. In kind it is functional, Mycoplasmoides genitalium. The conditions noted are these: time 7 day. On the set-up: scale not given: the % may be the effect or the level left.

In series [18] the test system is Mycoplasma genitalium. Kind of series: Potentiation of hydrogen peroxide sensitivity in Mycoplasma genitalium assessed as reduction in bactericidal concentration of hydrogen peroxide at 0.32 uM measured after 7 days by checkerboard technique (reference value: 7 mM). In kind it is functional, Mycoplasmoides genitalium. The settings on record: time 7 day.
Series [19] deals with Mycoplasma genitalium. Kind of series: Antibacterial activity against Mycoplasma genitalium at 0.28 to 1.12 measured after >1 month. The settings on record: Mycoplasmoides genitalium; time > 1.0 months. Format: functional, organism-based.
Series [20] is described as follows: Metal chelating activity assessed as compound-manganese complex formation by UV-Vis spectrophotometric analysis.
A short description of series [21]: Metal chelating activity assessed as compound-magnesium complex formation by UV-Vis spectrophotometric analysis.
Series [22] relates to Mycoplasma genitalium. Kind of series: Antibacterial activity against Mycoplasma genitalium assessed as bacterial growth inhibition in SP-4 broth medium supplemented with DPP at 0.08 to 0.64 uM measured after 2 hrs by absorbance based analysis. Format: functional, organism-based. The settings on record: Mycoplasmoides genitalium, dose 0.08-0.64 µM.
Series [23] can be described thus: Selectivity index, ratio of IC50 for African green monkey Vero cells to IC50 for Mycoplasma genitalium G37. Format: toxicity. The conditions noted are these: read-out: Ratio IC50.
The subject of series [24] is Mycoplasma genitalium. Kind of series: Antibacterial activity against Mycoplasma genitalium M2300 assessed as bacterial growth inhibition incubated for 7 days by microbroth dilution assay. Format: functional. The conditions noted are these: Mycoplasmoides genitalium, M2300, 168 h; time 7 day.
Series [25] has as its system Mycoplasma genitalium. Kind of series: Antibacterial activity against Mycoplasma genitalium at >0.3 uM. Format: functional, organism-based. The conditions noted are these: Mycoplasmoides genitalium.
Series [26] relates to Mycoplasma genitalium. The series is described as follows: Antibacterial activity against Mycoplasma genitalium Sea-2 assessed as bacterial growth inhibition by qPCR analysis. The settings on record: Mycoplasmoides genitalium. Format: functional, organism-based.
Series [27] has as its system Mycoplasma genitalium. Kind of series: Antibacterial activity against Mycoplasma genitalium Sea-2 assessed as bacterial growth inhibition incubated for 7 days by microbroth dilution assay. Format: functional. The conditions noted are these: Mycoplasmoides genitalium, Sea-2, 168 h; time 7 day.
Series [28] can be described thus: Metal chelating activity assessed as compound-copper complex formation by UV-Vis spectrophotometric analysis.
Series [29] deals with Mycoplasma genitalium. Kind of series: Antibacterial activity against Mycoplasma genitalium assessed as bacterial growth inhibition in SP-4 broth medium supplemented with DPP and ferric chloride at 0.64 uM measured after 2 hrs by absorbance based analysis. Format: functional, organism-based. The conditions noted are these: Mycoplasmoides genitalium.
A short description of series [30]: Selectivity index, ratio of IC50 for human HepG2 cells to IC50 for Mycoplasma genitalium G37. The conditions noted are these: read-out: Ratio IC50. In kind it is toxicity.

Consider `COn1ccc2c(c1=O)[C@@H]1[C@@H](C)C[C@@H](C)C[C@]1(C)[C@@H](C)O2`, for which, in the series on Mycoplasma genitalium [1], the minimum inhibitory concentration (MIC) – broadly, the lowest concentration found to suppress growth – was over 80 µM.
Consider `C[C@@H]1C[C@H](C)[C@H]2c3c(ccn(O)c3=O)O[C@H](C)[C@@]2(C)C1`, for which the IC50 – broadly, the point on the concentration scale where inhibition reaches its midpoint – in the series with Mycoplasma genitalium [2] was 90 nM; in the series with Mycoplasma genitalium [7], 100 nM; with Mycoplasma genitalium [26], 60 nM. Further, the IC90 (usually the point of the concentration-response curve where the effect stands at 90%) worked out at 120 nM with Mycoplasma genitalium [2], 120 nM with Mycoplasma genitalium [7] and 110 nM with Mycoplasma genitalium [26]. Moreover, the result (in the series on Mycoplasma genitalium [3]; with Mycoplasma genitalium [5]; in series [14]; with Mycoplasma genitalium [29]) was Active. The MIC with Mycoplasma genitalium [4] was 0.16 µM (≈ 0.0444 µg/mL); with Mycoplasma genitalium [11], 0.16 µM (≈ 0.0444 µg/mL); in the series on Mycoplasma genitalium [1], 0.32 µM (≈ 0.0888 µg/mL); with Mycoplasma genitalium [24] it was 0.16 µM (≈ 0.0444 µg/mL); with Mycoplasma genitalium [27], 0.32 µM (≈ 0.0888 µg/mL). Moreover, the outcome (in [6]; in [9]; in the series on Mycoplasma genitalium [10]; in series [13]; in [16]; in the series on Mycoplasma genitalium [19]) was inactive. For the same compound, the result (in series [20]; in series [21]; in the series on Mycoplasma genitalium [22]; in the series with Mycoplasma genitalium [25]; in series [28]) was inactive. The selectivity ratio in series [8], in [12], in series [23] and in series [30] was over 32 in each case. The Activity with Mycoplasma genitalium [15] is recorded as 84.2%; in the series with Mycoplasma genitalium [17], over 99.9%; in the series on Mycoplasma genitalium [18], 1.8 mM.
Consider `C[C@@H]1C[C@H](C)[C@H]2c3c(cc[nH]c3=O)O[C@H](C)[C@@]2(C)C1`, for which the minimal inhibitory concentration (MIC) in the series with Mycoplasma genitalium [1] is over 80 µM.
In the case of `COn1ccc(O)c([C@@H]2[C@@H](C)C[C@@H](C)C[C@](C)(O)[C@H]2C)c1=O`, in the series on Mycoplasma genitalium [1], the minimal inhibitory concentration (MIC) is over 80 µM.
Consider `C[C@@H]1C[C@H](C)[C@@H](c2c(O)cc[nH]c2=O)[C@H](C)[C@@](C)(O)C1` [DEOXYAKANTHOMYCIN], for which the MIC in the series with Mycoplasma genitalium [1] was over 80 µM.
With `C=C[C@H]1C[C@@H](C)C[C@@H](C)[C@@H]1c1c(O)ccn(O)c1=O`, the MIC in the series on Mycoplasma genitalium [1] was over 95 µM.
